Data set [1] is described as follows: Phase I trial toxicity assessment (dose limiting toxicities, CTCAE version 5.0). It counts as in vivo, human. Conditions: for hematopoietic profile and biochemistry / protocol defined dose limiting toxicities: 20 mg oral daily. The procedure: The subjects were assessed for toxicity using daily diary entries, clinical assessments at baseline, day 8, day 15, day 22, and day 28. Dose limiting toxicities were DLTs defined as the following cycle 1 CTCAE version 5.0 adverse events: Gr 4 platelets, Gr≥3 platelets with bleeding and/or transfusions, Gr 4 ANC for ≥7 days, Gr≥3 febrile neutropenia, and Gr≥3 non-hematological toxicity.

The nature of data set [2]: in vivo. Conditions: dog, plasma, po.
For data set [3], the system named is Leukemia cultured human cancer cells. Conditions: mean among sensitive cell lines, cited from earlier work.
Data set [4] in a line: Animal (GLP) non-clinical safety testing. It counts as in vivo. An excerpt: PCLX-001 (FIG. 1) is a potent, small molecule inhibitor of human NMT1 and NMT2 proteins.
A short description of data set [5]: PK and maximally tolerated dose, daily oral administration, dog.
The test system of data set [6] is implanted human tumors. The following applies: cited from earlier work.
Data set [7] has as its system Breast cultured human cancer cells. Conditions: mean among sensitive cell lines, cited from earlier work.
The subject of data set [8] is Stomach cultured human cancer cells. The following applies: second panel, mean among sensitive cell lines, read-out: IC50 mean +/− SD; cited from earlier work.
In data set [9] the test system is Bruton tyrosine kinase (BTK). The following applies: models of human lymphoma; cited from earlier work.
Data set [10] can be described thus: PK and maximally tolerated dose, daily oral administration, rat.
[11] abbreviates: first panel, read-out: EC50 mean +/− SD.
Where [12] appears, read: second panel, read-out: IC50 mean +/− SD.

The source of these data is patent US20250161299A1, “ORAL PCLX-001 IN THE TREATMENT OF HUMAN CANCER” (PACYLEX PHARMACEUTICALS INC., priority 2022, published 2025).

Entries after “also recorded” stand apart in the source; their conditions may differ.

As for `Cc1c(NS(=O)(=O)c2c(Cl)cc(-c3ccnc(N4CCNCC4)c3)cc2Cl)c(CC(C)C)nn1C` [PCLX-001, 2,6-dichloro-N-(3-isobutyl-1,5-dimethyl-1H-pyrazol-4-yl)-4-(2-(piperazin-1-yl)pyridin-4-yl)benzene sulfonamide], the figures for the “hematopoietic profile and biochemistry” value in data set [1] (Patient 1) and in data set [1] (Patient 2) were “remained normal; also recorded: no evidence of toxicity” and “remained normal”, respectively. For the same compound, the “protocol defined dose limiting toxicities” value was “did not experience any dose limiting toxicities; also recorded: no protocol defined dose limiting toxicities” in data set [1] (Patient 1, 28 day cycle) and “no protocol defined dose limiting toxicities” in data set [1] (Patient 2). For the same compound, the drug related toxicities entry in [1] (Patient 3, daily PCLX-001, two 28 day cycles) is “No drug related toxicities were identified”. In [2], the maximum concentration (Cmax) turned out to be 650 ng/mL. In addition, the half-life in data set [2] was 3.8 h. Moreover, the EC50 in [3] (setting [11]) is 97.9 ± 81.3 nM; in data set [7] (setting [11]), 101 ± 96.4 nM. Besides, the results for the IC50 in data set [3] (setting [12]), in [7] (setting [12]) and in data set [8] were 189 ± 87.8 nM, 161 ± 47.9 nM and 120 ± 48.2 nM, respectively. Besides, the cardiac conduction entry in data set [4] is reported as “no cardiac conduction issues”. Besides, the entries for the “Maximally Tolerated Dose daily oral administration” value in data set [5] and in [10] were 4 mg/kg and 125 mg/kg, respectively. In addition, in [6] (10 mg/kg or lower), the “anticancer activity in mice bearing human cancers” value is “no evident anticancer activity”. In addition, the “anti-cancer effects in mice with implanted human tumors” value in data set [6] (35 mg/kg and higher doses) is recorded as “had anti-cancer effects”. The “response of human cancers grown in immunodeficient mice” value in data set [6] (preclinical studies) is “complete remissions”. Moreover, the “BTK modification and downstream signaling” value in [9] is given as “profoundly inhibited”.
